From US8546339B2, “Soothing cosmetic or pharmaceutical composition comprising a peptide which activates HMG-CoA reductase” (ISP Investments Inc., priority 2008, dated 2013)
Where no end group is shown, it is not given here.

Columns and labels:
[1] = test system: interleukin-1 alpha (IL-1 alpha); assay: Ex vivo IL-1 alpha secretion by human skin biopsies (ELISA); type: cell-based; conditions: peptide 0.5 ppm 24 h, vs controls untreated by the peptide
Description: The goal of this study is to determine the ex vivo effect of peptide SEQ ID No. 5 on the production of the IL-1 alpha cellular inflammation mediator by biopsies of human skin cultivated under standard conditions or subjected to stress by UVB radiation or SDS.
5 mm-diameter biopsies of human skin are maintained in culture at the air-liquid interface in the presence of standard culture medium. The samples are treated with a 1% dilution of a solution at 50 ppm of peptide SEQ ID No. 5 for 24 hours, and then irradiated by UVB radiation (200 mJ/cm^2) and put back in culture for 24 hours, or subjected to contact with SDS at 2.5% for 24 hours in the presence of the same concentration of peptide SEQ ID No. 5. Controls untreated by the peptide are carried out under the same conditions. At the end of the experiment, the quantity of interleukin-1 alpha salted out in the culture medium is assayed by the ELISA technique.

HMG-CoA reductase = assay: Expression of HMG-CoA reductase in normal human keratinocytes (immunofluorescence); type: cell-based; conditions: peptide 0.5 ppm (1% of 50 ppm stock), 24 or 48 hours, anti-HMG-CoA reductase antibody, epifluorescence microscopy
Description: The goal of this study is to determine the influence of peptide SEQ ID No. 5 on the expression of HMG-CoA reductase in normal human keratinocytes.
Normal human keratinocytes in culture are treated with a 1% stock solution at 50 ppm of peptide SEQ ID No. 5 for 24 or 48 hours (the medium in the presence of the active ingredient is changed every 24 hours). The cells are then washed and fixed in cold methanol for 4 minutes at 4° C. The cells are incubated in the presence of a polyclonal rabbit antibody specific for HMG-CoA reductase (Millipore, Upstate), and then a secondary antibody coupled with a fluorescent dye. The cells are then examined by epifluorescence microscope (Nikon Eclipse E600 microscope).

Arg-Gly-Lys-Ser-NH2 (RGKS-NH2) [SEQ ID No. 5]
reduction of IL-1 alpha released in culture medium after SDS stress ([1]; SDS 2.5% for 24 hours with peptide): 58% | reduction of IL-1 alpha released in culture medium after UVB radiation ([1]; UVB 200 mJ/cm^2, 24 h culture): 40% | HMG-CoA reductase expression (cytoplasmic fluorescence) (HMG-CoA reductase): more intense cytoplasmic fluorescence
